Converted amounts (≈) assume the structure as drawn. The source made the active and inactive calls. No cut-off for these calls is given here. Non-standard residues stand in square brackets, D forms with d. Residues, ends and D or L forms follow the SMILES beside them. ξ: configuration not given here. Pro(3ξ,4ξ-(CH2)4) = O=C(O)[C@H]1NCC2CCCCC21; Oic = O=C(O)[C@@H]1C[C@@H]2CCCC[C@@H]2N1; Tic = O=C(O)[C@@H]1Cc2ccccc2CN1

One data set relates to Staphylococcus aureus. Put plainly: Antibacterial activity against methicillin/gentamicin/tetracycline resistant Staphylococcus aureus ATCC 33592. It is filed as functional.
The test system of a further data set is Salmonella typhimurium. Nature of the data set: Antibacterial activity against Salmonella Typhimurium ATCC 13311. It is filed as functional, Salmonella enterica subsp. enterica serovar Typhimurium. The following applies: for MIC: Salmonella enterica; for Activity: Salmonella enterica subsp. enterica serovar Typhimurium.
For the next data set, the system named is Bacillus subtilis. Put plainly: Antibacterial activity against Bacillus subtilis ATCC 43223. Format: functional.
Another data set relates to Mycobacterium. Put plainly: Antibacterial activity against Mycobacterium ranae ATCC 110. Format: functional.
Data set [1] can be described thus: Toxicity to mouse RBC assessed as hemolytic activity at 100 uM. Format: cell-based, Erythrocyte. The following applies: red blood cells, read-out: Activity.

For orientation: MIC means the least concentration at which growth counts as inhibited. Lower therefore signals greater potency. In the case of `CC(=O)NCC(=O)N[C@@H](Cc1ccccc1)C(=O)N[C@@H](Cc1ccccc1)C(=O)N1CC2CCCCC2[C@H]1C(=O)NCC(=O)N[C@@H](CCCCN)C(=O)N[C@@H](Cc1ccccc1)C(=O)N1CC2CCCCC2[C@H]1C(=O)NCC(=O)N[C@@H](Cc1ccccc1)C(=O)N[C@@H](Cc1ccccc1)C(=O)N1CC2CCCCC2[C@H]1C(=O)NCC(=O)N[C@@H](CCCCN)C(=O)N[C@@H](Cc1ccccc1)C(=O)N[C@@H](CCCCN)C(=O)N[C@@H](CCCCN)C(=O)N[C@@H](CCCCN)C(=O)N[C@@H](CCCCN)C(N)=O` (stereo partly specified) (Ac-GFF[Pro(3ξ,4ξ-(CH2)4)]GKF[Pro(3ξ,4ξ-(CH2)4)]GFF[Pro(3ξ,4ξ-(CH2)4)]GKFKKKK-NH2), the MIC was found to be 10 µM (≈ 23.9 µg/mL) with Staphylococcus aureus, 10 µM (≈ 23.9 µg/mL) in the data set with Salmonella typhimurium, 3 µM (≈ 7.18 µg/mL) against Bacillus subtilis and 10 µM (≈ 23.9 µg/mL) against Mycobacterium.

With `CC(=O)NCC(=O)N[C@@H](Cc1ccccc1)C(=O)NCC(=O)N1CC2CCCCC2[C@H]1C(=O)NCC(=O)N[C@@H](CCCCN)C(=O)NCC(=O)N1CC2CCCCC2[C@H]1C(=O)NCC(=O)N[C@@H](Cc1ccccc1)C(=O)NCC(=O)N1CC2CCCCC2[C@H]1C(=O)NCC(=O)N[C@@H](CCCCN)C(=O)NCC(=O)N[C@@H](CCCCN)C(=O)N[C@@H](CCCCN)C(=O)N[C@@H](CCCCN)C(=O)N[C@@H](CCCCN)C(N)=O` (stereo partly specified) (Ac-GFG[Pro(3ξ,4ξ-(CH2)4)]GKG[Pro(3ξ,4ξ-(CH2)4)]GFG[Pro(3ξ,4ξ-(CH2)4)]GKGKKKK-NH2), the MIC amounted to 3 µM (≈ 6.1 µg/mL) against Staphylococcus aureus, 30 µM (≈ 61 µg/mL) with Bacillus subtilis and 100 µM (≈ 203 µg/mL) against Mycobacterium.

As to `CC(=O)NCC(=O)N[C@@H](Cc1ccccc1)C(=O)N1CC2CCCCC2[C@H]1C(=O)NCC(=O)N[C@@H](CCCCN)C(=O)N1CC2CCCCC2[C@H]1C(=O)NCC(=O)N[C@@H](Cc1ccccc1)C(=O)N1CC2CCCCC2[C@H]1C(=O)NCC(=O)N[C@@H](CCCCN)C(=O)N[C@@H](CCCCN)C(=O)N[C@@H](CCCCN)C(=O)N[C@@H](CCCCN)C(=O)N[C@@H](CCCCN)C(N)=O` (stereo partly specified) (Ac-GF[Pro(3ξ,4ξ-(CH2)4)]GK[Pro(3ξ,4ξ-(CH2)4)]GF[Pro(3ξ,4ξ-(CH2)4)]GKKKKK-NH2), the MIC worked out at 100 µM (≈ 180 µg/mL) with Salmonella typhimurium, 3 µM (≈ 5.41 µg/mL) against Bacillus subtilis and 100 µM (≈ 180 µg/mL) in the data set on Mycobacterium.

With `CSCC[C@H](NC(=O)[C@H](CC(C)C)NC(=O)[C@H](CCC(=O)O)NC(=O)[C@@H]1C2CCCCC2CN1C(=O)[C@@H]1Cc2ccccc2CN1C(=O)[C@H](CCCCN)NC(=O)CNC(=O)[C@H](CC(C)C)NC(=O)[C@H](CCCCN)NC(=O)CNC(=O)[C@@H]1C2CCCCC2CN1C(=O)[C@@H]1Cc2ccccc2CN1C(=O)[C@H](CO)NC(=O)[C@H](CC(N)=O)NC(=O)[C@H](CCSC)NC(=O)[C@H](CC(C)C)NC(=O)[C@@H](N)CCC(=O)O)C(=O)N[C@@H](CO)C(N)=O` (stereo partly specified) (H-ELMNS[Tic][Pro(3ξ,4ξ-(CH2)4)]GKLGK[Tic][Pro(3ξ,4ξ-(CH2)4)]ELMS-NH2), the hemolysis at 100 µM in data set [1] turned out to be 23%. For the same compound, the outcome in the data set on Staphylococcus aureus and with Salmonella typhimurium was inactive.

For the compound `CSCC[C@H](NC(=O)[C@H](CC(C)C)NC(=O)[C@H](CCC(=O)O)NC(=O)[C@@H]1C2CCCCC2CN1C(=O)[C@@H]1Cc2ccccc2CN1C(=O)[C@H](CCCCN)NC(=O)CNC(=O)[C@@H]1C2CCCCC2CN1C(=O)[C@@H]1Cc2ccccc2CN1C(=O)[C@H](CC(C)C)NC(=O)CNC(=O)[C@@H]1C2CCCCC2CN1C(=O)[C@@H]1Cc2ccccc2CN1C(=O)[C@H](CCCCN)NC(=O)CNC(=O)[C@@H]1C2CCCCC2CN1C(=O)[C@@H]1Cc2ccccc2CN1C(=O)[C@H](CC(C)C)NC(=O)CNC(=O)[C@@H]1C2CCCCC2CN1C(=O)[C@@H]1Cc2ccccc2CN1C(=O)[C@H](CO)NC(=O)[C@H](CC(N)=O)NC(=O)[C@H](CCSC)NC(=O)[C@H](CC(C)C)NC(=O)[C@@H](N)CCC(=O)O)C(=O)N[C@@H](CC(N)=O)C(=O)N[C@@H](CO)C(N)=O` (stereo partly specified) (H-ELMNS[Tic][Pro(3ξ,4ξ-(CH2)4)]GL[Tic][Pro(3ξ,4ξ-(CH2)4)]GK[Tic][Pro(3ξ,4ξ-(CH2)4)]GL[Tic][Pro(3ξ,4ξ-(CH2)4)]GK[Tic][Pro(3ξ,4ξ-(CH2)4)]ELMNS-NH2), the hemolysis at 100 µM in data set [1] was 3%. Moreover, the outcome with Staphylococcus aureus and in the data set on Salmonella typhimurium was inactive.

`CC(C)C[C@H](NC(=O)CNC(=O)[C@H](CCCCN)NC(=O)CN)C(=O)N1Cc2ccccc2C[C@H]1C(=O)N1[C@H](C(=O)NCC(=O)N[C@@H](CCCNC(=N)N)C(=O)N2Cc3ccccc3C[C@H]2C(=O)N2[C@H](C(=O)NCC(=O)N[C@@H](Cc3ccccc3)C(=O)N3Cc4ccccc4C[C@H]3C(=O)N3[C@H](C(=O)NCC(=O)N[C@@H](CCCNC(=N)N)C(=O)N4Cc5ccccc5C[C@H]4C(=O)N4[C@H](C(=O)NCC(=O)N[C@@H](Cc5ccccc5)C(=O)N5Cc6ccccc6C[C@H]5C(=O)N5[C@H](C(=O)NCC(=O)N[C@@H](CCCNC(=N)N)C(=O)N6Cc7ccccc7C[C@H]6C(=O)N6[C@H](C(=O)NCC(=O)N[C@@H](CCCCN)C(=O)N[C@@H](CCCNC(=N)N)C(N)=O)C[C@@H]7CCCC[C@@H]76)C[C@@H]6CCCC[C@@H]65)C[C@@H]5CCCC[C@@H]54)C[C@@H]4CCCC[C@@H]43)C[C@@H]3CCCC[C@@H]32)C[C@@H]2CCCC[C@@H]21` (H-GKGL[Tic][Oic]GR[Tic][Oic]GF[Tic][Oic]GR[Tic][Oic]GF[Tic][Oic]GR[Tic][Oic]GKR-NH2): the MIC with Salmonella typhimurium is 100 µM (≈ 362 µg/mL); against Bacillus subtilis it was 1 µM (≈ 3.62 µg/mL).

As to `CC(C)C[C@H](NC(=O)CNC(=O)[C@H](CCCCN)NC(=O)CN)C(=O)N1Cc2ccccc2C[C@H]1C(=O)N1CC2CCCCC2[C@H]1C(=O)N[C@@H](Cc1ccccc1)C(=O)N[C@@H](CCCCN)C(=O)N1Cc2ccccc2C[C@H]1C(=O)N1CC2CCCCC2[C@H]1C(=O)N[C@@H](CCCCN)C(=O)N[C@@H](Cc1ccccc1)C(=O)N1Cc2ccccc2C[C@H]1C(=O)N1CC2CCCCC2[C@H]1C(=O)N[C@@H](Cc1ccccc1)C(=O)N[C@@H](CCCCN)C(=O)N1Cc2ccccc2C[C@H]1C(=O)N1CC2CCCCC2[C@H]1C(=O)N[C@@H](CCCCN)C(=O)N[C@@H](Cc1ccccc1)C(=O)N1Cc2ccccc2C[C@H]1C(=O)N1CC2CCCCC2[C@H]1C(=O)N[C@@H](Cc1ccccc1)C(=O)N[C@@H](CCCCN)C(=O)N1Cc2ccccc2C[C@H]1C(=O)N1CC2CCCCC2[C@H]1C(=O)N[C@@H](Cc1ccccc1)C(=O)N[C@@H](CCCCN)C(=O)N[C@@H](CCCNC(=N)N)C(N)=O` (stereo partly specified) (H-GKGL[Tic][Pro(3ξ,4ξ-(CH2)4)]FK[Tic][Pro(3ξ,4ξ-(CH2)4)]KF[Tic][Pro(3ξ,4ξ-(CH2)4)]FK[Tic][Pro(3ξ,4ξ-(CH2)4)]KF[Tic][Pro(3ξ,4ξ-(CH2)4)]FK[Tic][Pro(3ξ,4ξ-(CH2)4)]FKR-NH2), the results for the MIC in the data set with Staphylococcus aureus, with Salmonella typhimurium and against Bacillus subtilis were 30 µM (≈ 121 µg/mL), 100 µM (≈ 404 µg/mL) and 3 µM (≈ 12.1 µg/mL), respectively.

Take `CC(C)C[C@H](NC(=O)CNC(=O)[C@H](CCCCN)NC(=O)CN)C(=O)N1Cc2ccccc2C[C@H]1C(=O)N1CC2CCCCC2[C@H]1C(=O)NCC(=O)N[C@@H](CCCCN)C(=O)N1Cc2ccccc2C[C@H]1C(=O)N1CC2CCCCC2[C@H]1C(=O)NCC(=O)N[C@@H](Cc1ccccc1)C(=O)N1Cc2ccccc2C[C@H]1C(=O)N1CC2CCCCC2[C@H]1C(=O)NCC(=O)N[C@@H](CCCCN)C(=O)N1Cc2ccccc2C[C@H]1C(=O)N1CC2CCCCC2[C@H]1C(=O)NCC(=O)N[C@@H](Cc1ccccc1)C(=O)N1Cc2ccccc2C[C@H]1C(=O)N1CC2CCCCC2[C@H]1C(=O)NCC(=O)N[C@@H](CCCCN)C(=O)N1Cc2ccccc2C[C@H]1C(=O)N1CC2CCCCC2[C@H]1C(=O)NCC(=O)N[C@@H](CCCCN)C(=O)N[C@@H](CCCNC(=N)N)C(N)=O` (stereo partly specified) (H-GKGL[Tic][Pro(3ξ,4ξ-(CH2)4)]GK[Tic][Pro(3ξ,4ξ-(CH2)4)]GF[Tic][Pro(3ξ,4ξ-(CH2)4)]GK[Tic][Pro(3ξ,4ξ-(CH2)4)]GF[Tic][Pro(3ξ,4ξ-(CH2)4)]GK[Tic][Pro(3ξ,4ξ-(CH2)4)]GKR-NH2): the hemolysis at 100 µM in data set [1] is 33.4%.

Turning to `CC(C)C[C@H](NC(=O)CNC(=O)[C@H](CCCCN)NC(=O)CN)C(=O)N1Cc2ccccc2C[C@H]1C(=O)N1CC2CCCCC2[C@H]1C(=O)NCC(=O)N[C@@H](CCCCN)C(=O)N1Cc2ccccc2C[C@H]1C(=O)N1CC2CCCCC2[C@H]1C(=O)NCC(=O)N[C@@H](CC(C)C)C(=O)N1Cc2ccccc2C[C@H]1C(=O)N1CC2CCCCC2[C@H]1C(=O)NCC(=O)N[C@@H](CCCCN)C(=O)N1Cc2ccccc2C[C@H]1C(=O)N1CC2CCCCC2[C@H]1C(=O)NCC(=O)N[C@@H](CC(C)C)C(=O)N1Cc2ccccc2C[C@H]1C(=O)N1CC2CCCCC2[C@H]1C(=O)NCC(=O)N[C@@H](CCCCN)C(=O)N1Cc2ccccc2C[C@H]1C(=O)N1CC2CCCCC2[C@H]1C(=O)NCC(=O)N[C@@H](CCCCN)C(=O)N[C@@H](CCCNC(=N)N)C(N)=O` (stereo partly specified) (H-GKGL[Tic][Pro(3ξ,4ξ-(CH2)4)]GK[Tic][Pro(3ξ,4ξ-(CH2)4)]GL[Tic][Pro(3ξ,4ξ-(CH2)4)]GK[Tic][Pro(3ξ,4ξ-(CH2)4)]GL[Tic][Pro(3ξ,4ξ-(CH2)4)]GK[Tic][Pro(3ξ,4ξ-(CH2)4)]GKR-NH2), the hemolysis at 100 µM in data set [1] was 100%.

In the case of `CC(C)C[C@H](NC(=O)CNC(=O)[C@H](CCCCN)NC(=O)CN)C(=O)N1Cc2ccccc2C[C@H]1C(=O)N1CC2CCCCC2[C@H]1C(=O)NCC(=O)N[C@@H](CC(C)C)C(=O)N1Cc2ccccc2C[C@H]1C(=O)N1CC2CCCCC2[C@H]1C(=O)NCC(=O)N[C@@H](CCCCN)C(=O)N1Cc2ccccc2C[C@H]1C(=O)N1CC2CCCCC2[C@H]1C(=O)NCC(=O)N[C@@H](CC(C)C)C(=O)N1Cc2ccccc2C[C@H]1C(=O)N1CC2CCCCC2[C@H]1C(=O)NCC(=O)N[C@@H](CCCCN)C(=O)N1Cc2ccccc2C[C@H]1C(=O)N1CC2CCCCC2[C@H]1C(=O)NCC(=O)N[C@@H](CC(C)C)C(=O)N1Cc2ccccc2C[C@H]1C(=O)N1CC2CCCCC2[C@H]1C(=O)NCC(=O)N[C@@H](CCCCN)C(=O)N[C@@H](CCCNC(=N)N)C(N)=O` (stereo partly specified) (H-GKGL[Tic][Pro(3ξ,4ξ-(CH2)4)]GL[Tic][Pro(3ξ,4ξ-(CH2)4)]GK[Tic][Pro(3ξ,4ξ-(CH2)4)]GL[Tic][Pro(3ξ,4ξ-(CH2)4)]GK[Tic][Pro(3ξ,4ξ-(CH2)4)]GL[Tic][Pro(3ξ,4ξ-(CH2)4)]GKR-NH2), the hemolysis at 100 µM in data set [1] worked out at 100%. For the same compound, in the data set with Staphylococcus aureus, the lowest concentration to inhibit growth (MIC) was 100 µM (≈ 346 µg/mL). Also, the result in the data set with Salmonella typhimurium was inactive.

These data come from ChEMBL document CHEMBL1145395, “De novo design of selective antibiotic peptides by incorporation of unnatural amino acids” (J Med Chem, 2007).
